Assay results reported in ChEMBL document CHEMBL1143353, “Pyrazolo[1,5-a]-1,3,5-triazine as a purine bioisostere: access to potent cyclin-dependent kinase inhibitor (R)-roscovitine analogue” (J Med Chem, 2009).
pIC50: −log10 of the molar value.

Assays:
[1] = target: CDK9/cyclin T1 (Homo sapiens, UniProt P50750); assay: Inhibition of human recombinant CDK9/cyclin T expressed in baculovirus-infected insect cells
[2] = test system: OVCAR-8; assay: Antiproliferative activity against human OVCAR8 cells after 72 hrs by ViaLight assay; format: functional; settings: OVCAR-8, 72 h
[3] = test system: UACC-257; assay: Antiproliferative activity against human UACC257 cells after 72 hrs by ViaLight assay; format: functional; settings: UACC-257, 72 h
[4] = target: Cyclin-dependent kinase 5/CDK5 activator 1 (Homo sapiens, UniProt Q00535)
Description: Inhibition of human recombinant CDK5/p25 expressed in Escherichia coli

[5] = test system: BT-549; assay: Antiproliferative activity against human BT549 cells after 72 hrs by ViaLight assay; format: functional; settings: BT-549, 72 h
[6] = test system: HeLa; assay: Antiproliferative activity against human HeLa cells after 72 hrs by ViaLight assay; format: functional, cell-based
[7] = test system: SN12C; assay: Antiproliferative activity against human SN12C cells after 72 hrs by ViaLight assay; format: functional
[8] = test system: SW-620; assay: cells; settings: Homo sapiens, SW-620, 72 h
Description: Antiproliferative activity against human SW620 cells after 72 hrs by ViaLight assay

[9] = target: Cyclin-dependent kinase 7/ cyclin H (Homo sapiens, UniProt P50613); assay: Inhibition of human recombinant CDK7/cyclin H expressed in baculovirus-infected insect cells
[10] = test system: Raji; assay: Antiproliferative activity against human Raji cells after 72 hrs by ViaLight assay; format: functional, cell-based
[11] = read-out: LC50 (the source's name)
[12] = read-out: pLC50 (the source's name) (converted)

Sequence of CDK9/cyclin T1 (O60563 whole entry): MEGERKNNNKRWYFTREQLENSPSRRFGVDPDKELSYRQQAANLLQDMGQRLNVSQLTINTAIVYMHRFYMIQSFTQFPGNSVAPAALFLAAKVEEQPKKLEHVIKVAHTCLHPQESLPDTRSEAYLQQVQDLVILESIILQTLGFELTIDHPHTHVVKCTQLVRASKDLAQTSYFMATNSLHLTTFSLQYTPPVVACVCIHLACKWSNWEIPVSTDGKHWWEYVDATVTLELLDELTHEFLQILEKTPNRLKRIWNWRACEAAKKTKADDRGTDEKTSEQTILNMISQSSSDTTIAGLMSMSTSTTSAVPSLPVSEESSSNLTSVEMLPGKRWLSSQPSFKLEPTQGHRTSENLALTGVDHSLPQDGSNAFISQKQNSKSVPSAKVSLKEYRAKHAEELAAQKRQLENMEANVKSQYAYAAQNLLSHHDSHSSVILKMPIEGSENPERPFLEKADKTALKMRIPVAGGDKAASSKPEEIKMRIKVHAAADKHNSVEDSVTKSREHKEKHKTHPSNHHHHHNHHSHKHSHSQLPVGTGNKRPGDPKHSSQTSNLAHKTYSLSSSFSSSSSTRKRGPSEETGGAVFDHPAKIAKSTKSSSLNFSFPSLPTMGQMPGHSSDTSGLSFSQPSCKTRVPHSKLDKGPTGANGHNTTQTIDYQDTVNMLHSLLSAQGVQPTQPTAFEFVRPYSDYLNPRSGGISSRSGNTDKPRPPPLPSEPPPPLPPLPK
Sequence of CDK9/cyclin T1 (P50750 whole entry): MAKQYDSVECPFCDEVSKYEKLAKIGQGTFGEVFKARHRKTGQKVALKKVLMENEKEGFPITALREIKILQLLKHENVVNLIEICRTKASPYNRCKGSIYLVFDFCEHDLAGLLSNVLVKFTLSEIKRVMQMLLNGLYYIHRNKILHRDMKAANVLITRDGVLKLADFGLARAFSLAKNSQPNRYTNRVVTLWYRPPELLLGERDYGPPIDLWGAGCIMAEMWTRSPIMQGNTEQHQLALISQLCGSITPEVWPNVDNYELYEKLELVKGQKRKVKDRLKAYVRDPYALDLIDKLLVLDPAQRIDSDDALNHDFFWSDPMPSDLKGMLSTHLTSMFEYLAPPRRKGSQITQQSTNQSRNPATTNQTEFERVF
Sequence of Cyclin-dependent kinase 7/ cyclin H (P51946 whole entry): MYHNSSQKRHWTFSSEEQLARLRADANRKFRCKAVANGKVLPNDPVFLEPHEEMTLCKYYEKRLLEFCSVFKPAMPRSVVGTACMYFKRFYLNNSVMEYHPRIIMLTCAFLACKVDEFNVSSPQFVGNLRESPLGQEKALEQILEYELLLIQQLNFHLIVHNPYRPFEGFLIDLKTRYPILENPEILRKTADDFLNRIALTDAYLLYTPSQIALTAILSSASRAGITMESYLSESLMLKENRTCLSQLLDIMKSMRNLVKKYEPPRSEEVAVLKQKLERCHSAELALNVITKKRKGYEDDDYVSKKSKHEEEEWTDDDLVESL
Sequence of Cyclin-dependent kinase 7/ cyclin H (P50613 whole entry): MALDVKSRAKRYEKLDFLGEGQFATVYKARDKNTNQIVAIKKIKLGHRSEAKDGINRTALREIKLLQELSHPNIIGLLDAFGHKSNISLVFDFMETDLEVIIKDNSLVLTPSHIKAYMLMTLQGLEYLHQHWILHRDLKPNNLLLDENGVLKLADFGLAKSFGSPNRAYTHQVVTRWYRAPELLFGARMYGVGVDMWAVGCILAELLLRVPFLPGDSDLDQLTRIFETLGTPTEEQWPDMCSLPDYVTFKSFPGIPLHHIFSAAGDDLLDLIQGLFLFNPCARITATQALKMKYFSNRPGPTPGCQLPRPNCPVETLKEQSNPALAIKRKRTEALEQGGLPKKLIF
Sequence of Cyclin-dependent kinase 5/CDK5 activator 1 (Q00535 whole entry): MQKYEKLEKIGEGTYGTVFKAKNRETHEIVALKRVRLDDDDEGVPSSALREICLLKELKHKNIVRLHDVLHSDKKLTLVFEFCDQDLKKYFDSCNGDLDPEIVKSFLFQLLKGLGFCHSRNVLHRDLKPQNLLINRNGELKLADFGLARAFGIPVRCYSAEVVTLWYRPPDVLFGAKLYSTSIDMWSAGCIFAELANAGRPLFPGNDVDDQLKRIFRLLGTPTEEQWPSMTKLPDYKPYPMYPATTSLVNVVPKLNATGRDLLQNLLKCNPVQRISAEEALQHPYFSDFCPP
Sequence of Cyclin-dependent kinase 5/CDK5 activator 1 (Q15078 whole entry, further chain): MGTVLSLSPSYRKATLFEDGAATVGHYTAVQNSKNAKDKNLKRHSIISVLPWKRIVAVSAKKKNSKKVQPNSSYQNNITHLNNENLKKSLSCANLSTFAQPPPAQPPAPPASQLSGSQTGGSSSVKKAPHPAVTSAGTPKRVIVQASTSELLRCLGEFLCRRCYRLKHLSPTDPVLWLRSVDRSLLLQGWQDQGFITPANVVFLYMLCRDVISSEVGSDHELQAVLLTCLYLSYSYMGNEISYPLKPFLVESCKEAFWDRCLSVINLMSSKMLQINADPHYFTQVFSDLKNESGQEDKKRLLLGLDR

## CC[C@H](CO)Nc1nc(NCc2ccccc2)n2ncc(C(C)C)c2n1
[1]
  pIC50: 7.37
[2]; read-out: GI50
  GI50: 2.15 µM
[2]; [11]
  CC50: > 100 µM
[2]; read-out: TGI
  TGI: 54.8 µM
[2]; read-out: pGI50 (converted)
  GI50: 2.45 µM
[2]; [12]
  CC50: 100 µM
[2]; read-out: pTGI (converted)
  TGI: 55 µM
[3]; read-out: GI50
  GI50: 3.56 µM
[3]; [11]
  CC50: > 100 µM
[3]; read-out: TGI
  TGI: 15 µM
[3]; read-out: pGI50 (converted)
  GI50: 3.24 µM
[3]; [12]
  CC50: 100 µM
[3]; read-out: pTGI (converted)
  TGI: 24 µM
[4]
  pIC50: 7.15
[5]; read-out: GI50
  GI50: 1.56 µM
[5]; [11]
  CC50: 36.1 µM
[5]; read-out: TGI
  TGI: 5.29 µM
[5]; read-out: pGI50 (converted)
  GI50: 2.45 µM
[5]; [12]
  CC50: 36.3 µM
[5]; read-out: pTGI
  TGI: 5.25 µM
[6]
  Activity: Dose-dependent effect
[7]; read-out: GI50
  GI50: 2.41 µM
[7]; [11]
  CC50: 58.1 µM
[7]; read-out: TGI
  TGI: 14.4 µM
[7]; read-out: pGI50 (converted)
  GI50: 3.02 µM
[7]; [12]
  CC50: 57.5 µM
[7]; read-out: pTGI (converted)
  TGI: 14.5 µM
[8]
  GI50: 1.38 µM
  TGI: 5.56 µM
[8]; read-out: LC50
  CC50: > 100 µM
[8]; read-out: pGI50 (converted)
  GI50: 1.12 µM
[8]; read-out: pLC50 (converted)
  CC50: 100 µM
[8]; read-out: pTGI
  TGI: 5.5 µM
[9]
  pIC50: 6.30
[10]
  Activity: Dose-dependent effect
